We go through eleven molecules from patent US20260022143A1, “Cyclic Peptide Inhibitors of IL-23” (JANSSEN PHARMACEUTICA NV, priority 2022, published 2026).

Structures are written as SMILES. Structures can show the parent of a compound that is named as a salt. Starred links: 1 amine or outer side, 2 acyl side, 3 side chain; linkers in the order of their positions; H or OH if unused. Positions of bridges follow the written chain, without caps; N, C: chain ends. Non-standard residues stand in square brackets, D forms with d. Residues, ends and D or L forms follow the SMILES beside them. *: point of attachment. Trp(7-(3-AcNH-Ph)) = CC(=O)Nc1cccc(-c2cccc3c(C[C@H](N)C(=O)O)c[nH]c23)c1; X36 = C[N+]1(CCCc2cn(-c3ccc(C[C@H](N[*:1])C(=O)[*:2])cc3)nn2)CCOCC1; Me3N+(CH2)2O(CH2)2O(CH2)2CO = C[N+](C)(C)CCOCCOCCC(=O)*; Trp(7-Me) = Cc1cccc2c(C[C@H](N)C(=O)O)c[nH]c12; Hexanoyl(6-NMe3+) = C[N+](C)(C)CCCCCC(=O)*; dLys(Me3) = C[N+](C)(C)CCCC[C@@H](N)C(=O)O; Lys(Me3) = C[N+](C)(C)CCCC[C@H](N)C(=O)O; 3Pal(5-Me) = Cc1cncc(C[C@H](N)C(=O)O)c1; 2Nal = N[C@@H](Cc1ccc2ccccc2c1)C(=O)O; Propanoyl(3,3,3-F3) = O=C(CC(F)(F)F)*; AEF = NCCOc1ccc(C[C@H](N)C(=O)O)cc1; 3Pal = N[C@@H](Cc1cccnc1)C(=O)O; Lys(Me) = CNCCCC[C@H](N)C(=O)O; Pen = CC(C)(S)[C@H](N)C(=O)O; X85 = C[N+](C)(C)CCO/N=C/C*; Thp = NC1(C(=O)O)CCOCC1; X92 = COCC[N+](C)(C)CC*; Dap = NC[C@H](N)C(=O)O; X3 = C[N+](C)(C)CCCCC*; Me2NCH2CH2 = CN(C)CC*; Tfa = O=C(C(F)(F)F)*; Sar = CNCC(=O)O

This data set is described as follows: Exposed Polar Surface Area (EPSA). Format: physicochemical. The settings on record: SFC on Chirex 3014 column; sample 1 mM DMSO stock; read-out: EPSA. An outline of the steps: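 Retention-based polarity: supercritical CO2 with 20 mM ammonium formate in MeOH (5–60%, 20%/min), Chirex 3014 column, 35 °C. Calibrated against 8 standards to give EPSA (Å^2); each sample measured twice.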
In the case of `CC(=O)N[C@@H]1C(=O)N[C@@H](CC(=O)N(C)C)C(=O)N[C@@H]([C@@H](C)O)C(=O)N[C@@H](Cc2c[nH]c3c(C)cccc23)C(=O)N[C@@H](CCCC[N+](C)(C)C)C(=O)N[C@H](C(=O)N[C@@H](Cc2ccc(OCCN(C)C)cc2)C(=O)N[C@@H](Cc2ccc3ccccc3c2)C(=O)NC2(C(=O)N[C@@H](CCCC[N+](C)(C)C)C(=O)N[C@@H](CC(N)=O)C(=O)N[C@@H](Cc3cccnc3)C(=O)N(C)CC(=O)N(C)C)CCOCC2)C(C)(C)SSC1(C)C` [compound 117, MeCO-Pen(3)-N(N(Me)2)-T-7MeW-K(Me)3-Pen(3)-AEF(N(Me)2)-2Nal-THP-K(Me)3-N-3Pya-Sar-CON(Me)2] (Ac-[Pen]D(NMe2)T[Trp(7-Me)][Lys(Me3)][Pen]Y(Me2NCH2CH2)[2Nal][Thp][Lys(Me3)]N[3Pal][Sar]-NMe2; disulfide 1-6), the EPSA was 139 A^2.

As for `CC(=O)N(C)CCCC[C@@H]1NC(=O)[C@H](Cc2c[nH]c3c(C)cccc23)NC(=O)[C@H]([C@@H](C)O)NC(=O)[C@H](CC(=O)N(C)C)NC(=O)[C@@H](NC(=O)CCOCCOCC[N+](C)(C)C)C(C)(C)SSC[C@@H](C(=O)N[C@@H](Cc2ccc(OCCCCC[N+](C)(C)C)cc2)C(=O)N[C@@H](Cc2ccc3ccccc3c2)C(=O)NC2(C(=O)N[C@@H](CCCCN(C)C(C)=O)C(=O)N[C@@H](CC(N)=O)C(=O)N[C@@H](Cc3cccnc3)C(=O)N(C)CC(=O)N(C)C)CCOCC2)NC1=O` [compound 485, cPEG3aCO-Pen(3)-N(N(Me)2)-T-7MeW-K(NMeAc)-C(3)-TMAPF-2Nal-THP-K(NMeAc)-N-3Pya-Sar-CON(Me)2] ({Me3N+(CH2)2O(CH2)2O(CH2)2CO}-[Pen]D(NMe2)T[Trp(7-Me)][Lys(Me)](Ac)CY(X3)[2Nal][Thp][Lys(Me)](Ac)N[3Pal][Sar]-NMe2; disulfide 1-6), the EPSA is 163 A^2.

As for `CC(=O)N(C)CCCC[C@@H]1NC(=O)[C@H](Cc2c[nH]c3c(C)cccc23)NC(=O)[C@H]([C@@H](C)O)NC(=O)[C@H](CC(N)=O)NC(=O)[C@@H](NC(=O)C(F)(F)F)C(C)(C)SSC(C)(C)[C@@H](C(=O)N[C@@H](Cc2ccc(OCCN)cc2)C(=O)N[C@@H](Cc2ccc3ccccc3c2)C(=O)NC2(C(=O)N[C@@H](CCCCN(C)C(C)=O)C(=O)N[C@@H](CC(N)=O)C(=O)N[C@@H](Cc3cccnc3)C(=O)N(C)CC(N)=O)CCOCC2)NC1=O` [compound 69] (Tfa-[Pen]NT[Trp(7-Me)][Lys(Me)](Ac)[Pen][AEF][2Nal][Thp][Lys(Me)](Ac)N[3Pal][Sar]-NH2; disulfide 1-6), the EPSA is 161 A^2.

For `CC(=O)N[C@H](CCCNC(=N)N)C(=O)N[C@@H]1C(=O)N[C@@H](CC(=O)N(C)C)C(=O)N[C@@H]([C@@H](C)O)C(=O)N[C@@H](Cc2c[nH]c3c(C)cccc23)C(=O)N[C@@H](CCCCN(C)C(C)=O)C(=O)N[C@H](C(=O)N[C@@H](Cc2ccc(OCCCCC[N+](C)(C)C)cc2)C(=O)N[C@@H](Cc2ccc3ccccc3c2)C(=O)NC2(C(=O)N[C@@H](CCCCN(C)C(C)=O)C(=O)N[C@@H](CC(N)=O)C(=O)N[C@@H](Cc3cccnc3)C(=O)N(C)CC(=O)N(C)C)CCOCC2)C(C)(C)SSC1(C)C` [compound 345, MeCO-r-Pen(3)-N(N(Me)2)-T-7MeW-K(NMeAc)-Pen(3)-TMAPF-2Nal-THP-K(NMeAc)-N-3Pya-Sar-CON(Me)2] (Ac-[dR][Pen]D(NMe2)T[Trp(7-Me)][Lys(Me)](Ac)[Pen]Y(X3)[2Nal][Thp][Lys(Me)](Ac)N[3Pal][Sar]-NMe2; disulfide 2-7), the EPSA is 162 A^2.

As for `CC(=O)NCCCC[C@@H]1NC(=O)[C@H](Cc2c[nH]c3c(-c4cccc(NC(C)=O)c4)cccc23)NC(=O)[C@H]([C@@H](C)O)NC(=O)[C@H](CC(N)=O)NC(=O)[C@@H](NC(=O)[C@@H](CCCNC(=N)N)NC(C)=O)C(C)(C)SSC(C)(C)[C@@H](C(=O)N[C@@H](Cc2ccc(OCCCCC[N+](C)(C)C)cc2)C(=O)N[C@@H](Cc2ccc3ccccc3c2)C(=O)NC2(C(=O)N[C@@H](CCC(=O)O)C(=O)N[C@@H](CC(N)=O)C(=O)N[C@@H](Cc3cncc(C)c3)C(=O)N(C)CC(N)=O)CCOCC2)NC1=O` [compound 540, MeCO-r-Pen(3)-N-T-7(3NAcPh)W-K(Ac)-Pen(3)-TMAPF-2Nal-THP-E-N-5MePyridinAla-Sar-CONH2] (Ac-[dR][Pen]NT[Trp(7-(3-AcNH-Ph))]K(Ac)[Pen]Y(X3)[2Nal][Thp]EN[3Pal(5-Me)][Sar]-NH2; disulfide 2-7), the EPSA stood at 183 A^2.

For the molecule `CC(=O)NCCCC[C@@H]1NC(=O)[C@H](Cc2c[nH]c3c(C)cccc23)NC(=O)[C@H]([C@@H](C)O)NC(=O)[C@H](CC(N)=O)NC(=O)[C@@H](NC(=O)[C@@H](CCCC[N+](C)(C)C)NC(=O)CC(F)(F)F)C(C)(C)SSC(C)(C)[C@@H](C(=O)N[C@@H](Cc2ccc(OCCN)cc2)C(=O)N[C@@H](Cc2ccc3ccccc3c2)C(=O)NC2(C(=O)N[C@@H](CCCCNC(C)=O)C(=O)N[C@@H](CC(N)=O)C(=O)N[C@@H](Cc3cccnc3)C(=O)N(C)CC(N)=O)CCOCC2)NC1=O` [compound 144] ({Propanoyl(3,3,3-F3)}-[dLys(Me3)][Pen]NT[Trp(7-Me)]K(Ac)[Pen][AEF][2Nal][Thp]K(Ac)N[3Pal][Sar]-NH2; disulfide 2-7), the EPSA worked out at 161 A^2.

Take `CC(=O)N(C)CCCC[C@@H]1NC(=O)[C@H](Cc2c[nH]c3c(C)cccc23)NC(=O)[C@H]([C@@H](C)O)NC(=O)[C@H](CC(=O)N(C)C)NC(=O)[C@@H](NC(=O)CCOCCOCC[N+](C)(C)C)C(C)(C)SSC(C)(C)[C@@H](C(=O)N[C@@H](Cc2ccc(OC/C=N/OCC[N+](C)(C)C)cc2)C(=O)N[C@@H](Cc2ccc3ccccc3c2)C(=O)NC2(C(=O)N[C@@H](CCCCN(C)C(C)=O)C(=O)N[C@@H](CC(N)=O)C(=O)N[C@@H](Cc3cccnc3)C(=O)N(C)CC(=O)N(C)C)CCOCC2)NC1=O` [compound 305, cPEG3aCO-Pen(3)-N(N(Me)2)-T-7MeW-K(NMeAc)-Pen(3)-Y(OEOXlMECh)-2Nal-THP-K(NMeAc)-N-3Pya-Sar-CON(Me)2] ({Me3N+(CH2)2O(CH2)2O(CH2)2CO}-[Pen]D(NMe2)T[Trp(7-Me)][Lys(Me)](Ac)[Pen]Y(X85)[2Nal][Thp][Lys(Me)](Ac)N[3Pal][Sar]-NMe2; disulfide 1-6 (inferred)): the EPSA turned out to be 153 A^2.

With `CC(=O)NC[C@H](NC(=O)C1(NC(=O)[C@H](Cc2ccc3ccccc3c2)NC(=O)[C@H](Cc2ccc(OCCN(C)C)cc2)NC(=O)[C@H]2NC(=O)[C@H](CCCCN(C)C(C)=O)NC(=O)[C@H](Cc3c[nH]c4c(C)cccc34)NC(=O)[C@H]([C@@H](C)O)NC(=O)[C@H](CC(=O)N(C)C)NC(=O)[C@@H](NC(=O)CCCCC[N+](C)(C)C)C(C)(C)SSC2(C)C)CCOCC1)C(=O)N[C@@H](CC(N)=O)C(=O)N[C@@H](Cc1cccnc1)C(=O)N(C)CC(=O)N(C)C` [compound 133, 5cpaCO-Pen(3)-N(N(Me)2)-T-7MeW-K(NMeAc)-Pen(3)-AEF(N(Me)2)-2Nal-THP-Dap(Ac)-N-3Pya-Sar-CON(Me)2] ({Hexanoyl(6-NMe3+)}-[Pen]D(NMe2)T[Trp(7-Me)][Lys(Me)](Ac)[Pen]Y(Me2NCH2CH2)[2Nal][Thp][Dap](Ac)N[3Pal][Sar]-NMe2; disulfide 1-6 (inferred)), the EPSA was 151 A^2.

With `CC(=O)NCCCC[C@@H]1NC(=O)[C@H](Cc2c[nH]c3c(C)cccc23)NC(=O)[C@H]([C@@H](C)O)NC(=O)[C@H](CC(N)=O)NC(=O)[C@@H](NC(=O)CCOCCOCC[N+](C)(C)C)C(C)(C)SSC(C)(C)[C@@H](C(=O)N[C@@H](Cc2ccc(-n3cc(CCC[N+]4(C)CCOCC4)nn3)cc2)C(=O)N[C@@H](Cc2ccc3ccccc3c2)C(=O)NC2(C(=O)N[C@@H](CCCCNC(C)=O)C(=O)N[C@@H](CC(N)=O)C(=O)N[C@@H](Cc3cccnc3)C(=O)N(C)CC(N)=O)CCOCC2)NC1=O` [compound 439, cPEG3aCO-Pen(3)-N-T-7MeW-K(Ac)-Pen(3)-F(4TzlMMo3)-2Nal-THP-K(Ac)-N-3Pya-Sar-CONH2] ({Me3N+(CH2)2O(CH2)2O(CH2)2CO}-[Pen]NT[Trp(7-Me)]K(Ac)[Pen][X36][2Nal][Thp]K(Ac)N[3Pal][Sar]-NH2; disulfide 1-6), the EPSA was found to be 167 A^2.

As for `COCC[N+](C)(C)CCOc1ccc(C[C@H](NC(=O)[C@H]2NC(=O)[C@H](CCCCN(C)C(C)=O)NC(=O)[C@H](Cc3c[nH]c4c(C)cccc34)NC(=O)[C@H]([C@@H](C)O)NC(=O)[C@H](CC(=O)N(C)C)NC(=O)[C@@H](NC(=O)CCOCCOCC[N+](C)(C)C)C(C)(C)SSC2(C)C)C(=O)N[C@@H](Cc2ccc3ccccc3c2)C(=O)NC2(C(=O)N[C@@H](CCCCN(C)C(C)=O)C(=O)N[C@@H](CC(N)=O)C(=O)N[C@@H](Cc3cccnc3)C(=O)N(C)CC(=O)N(C)C)CCOCC2)cc1` [compound 228, cPEG3aCO-Pen(3)-N(N(Me)2)-T-7MeW-K(NMeAc)-Pen(3)-mPEG2TMA2F-2Nal-THP-K(NMeAc)-N-3Pya-Sar-CON(Me)2] ({Me3N+(CH2)2O(CH2)2O(CH2)2CO}-[Pen]D(NMe2)T[Trp(7-Me)][Lys(Me)](Ac)[Pen]Y(X92)[2Nal][Thp][Lys(Me)](Ac)N[3Pal][Sar]-NMe2; disulfide 1-6), the EPSA is 139 A^2.

Regarding `CC(=O)NCCCC[C@@H]1NC(=O)[C@H](Cc2c[nH]c3c(-c4cccc(NC(C)=O)c4)cccc23)NC(=O)[C@H]([C@@H](C)O)NC(=O)[C@H](CC(N)=O)NC(=O)[C@@H](NC(=O)[C@@H](CCCC[N+](C)(C)C)NC(C)=O)C(C)(C)SSC(C)(C)[C@@H](C(=O)N[C@@H](Cc2ccc(OCCN)cc2)C(=O)N[C@@H](Cc2ccc3ccccc3c2)C(=O)NC2(C(=O)N[C@@H](CCCCNC(C)=O)C(=O)N[C@@H](CC(N)=O)C(=O)N[C@@H](Cc3cccnc3)C(=O)N(C)CC(N)=O)CCOCC2)NC1=O` [compound 449] (Ac-[dLys(Me3)][Pen]NT[Trp(7-(3-AcNH-Ph))]K(Ac)[Pen][AEF][2Nal][Thp]K(Ac)N[3Pal][Sar]-NH2; disulfide 2-7), the EPSA came out at 176 A^2.
